In US12453709B2, “Compositions and methods for treating autism” (priority 2013, dated 2025):

How the values were obtained:
[1] = test system: male patients diagnosed with autism; test: Study HT 02-121: Aberrant Behavior Checklist-Community (ABC-C); assay type: in vivo, human; details: for ABC-C Hyperactivity and Noncompliance Mean Change from Baseline / ABC-C Hyperactivity and Noncompliance Treatment effect versus placebo / ABC-C Hyperactivity and Noncompliance change, median / ABC-C Inappropriate Speech Mean Change from Baseline / ABC-C Inappropriate Speech Treatment effect versus placebo / ABC-C Inappropriate Speech change, median / ABC-C Irritability and Agitation Mean Change from Baseline / ABC-C Irritability and Agitation Treatment effect versus placebo / ABC-C Irritability and Agitation change, median / ABC-C Lethargy and Social Withdrawal Mean Change from Baseline / ABC-C Lethargy and Social Withdrawal Treatment effect versus placebo / ABC-C Lethargy and Social Withdrawal change, median / ABC-C Stereotypic Behavior Mean Change from Baseline / ABC-C Stereotypic Behavior Treatment effect versus placebo / ABC-C Stereotypic Behavior change, median: Week 4/LOCF
Method: (§1) This clinical study was a randomized double-blind, placebo-controlled two-cohort, 4-week dose-escalation study that incorporated two open-label treatment groups to assess the safety and efficacy of L1-79 100 mg and 200 mg TID in male patients between the ages of […] years of age diagnosed with autism. The first cohort of 20 patients was comprised of three groups of patients: The first group of five patients received open-label L1-79 100 mg TID and underwent PK and EKG assessments. The remaining two groups in this cohort consisted of 15 patients randomized on a 2:1 basis to receive L1-79 100 mg TID or placebo. The PK and safety data from the open-label L1-79 100 mg TID group was submitted to FDA for review and acceptance before the second cohort was enrolled. The second cohort was procedurally identical to the first. The second cohort of 20 patients was comprised of the same three groups of patients but a dose of 200 mg TID was used instead of 100 mg TID. The key inclusion criteria were as follows: (1) males between 13 and 21 years of age, (2) DSM-5 compliant diagnosis of autism spectrum disorder, confirmed by the Autistic Diagnosis Interview Review (ADIR), and by an ADOS-2 score consistent with a diagnosis of autism, (3) must have been stable on no more than one concomitant medication and no planned changes in psychosocial interventions during the study.
(§2) The primary efficacy endpoint was the determination of the clinical improvement by the investigator as documented by the Clinical Global Impression (CGI) rating scales. Additional efficacy endpoints included: (1) changes from baseline in the Socialization and Communication Domains of the Vineland Adaptive Behavior Scales, Second Edition (VABS II) parent/caregiver rating form, (2) changes from baseline in the ADOS-2 Total Score and subscores, (3) changes in the Social Responsiveness Scale, Second Edition (SRS-2) Total Score and subscales, (4) changes in the ABC-C domains, (5) changes in the Repetitive Behavior Scale-Revised (RBS-R) Total Score and subscales. Given the exploratory design of this study only descriptive statistics were planned.
In the preliminary study, all forms were completed at the study site in the presence of the investigator. In Cohort 1 of the present study, the VABS-II, SRS-2, ABC-C and RBS-R were filled out at home by the patient/patient's families prior to treatment visits and returned at treatment visits in order to expedite the execution of the study. […]

[2] = test system: male patients diagnosed with autism; test: Study HT 02-121: Vineland Adaptive Behavior Scales, Second Edition (VABS II); assay type: in vivo, human; details: Week 4/LOCF
Method: as §1, §2
In the preliminary study, all forms were completed at the study site in the presence of the investigator. In Cohort 1 of the present study, the VABS-II, SRS-2, ABC-C and RBS-R were filled out at home by the patient/patient's families prior to treatment visits and returned at treatment visits in order to expedite the execution of the study.

CC(N)(Cc1ccc(O)cc1)C(=O)O (racemic) [L1-79, α-methyl-DL-tyrosine]
ABC-C Lethargy and Social Withdrawal / Inappropriate Speech: responder analyses vs placebo ([1]; 200 mg group): greater tendency for patients to respond with improvement or no worsening
ABC-C Hyperactivity and Noncompliance Mean Change from Baseline ([1]; DB 100 mg TID): 0.4
ABC-C Hyperactivity and Noncompliance Treatment effect versus placebo ([1]; DB 100 mg TID): 4.9
ABC-C Hyperactivity and Noncompliance change, median ([1]; DB 100 mg TID): 0, 0, 3
ABC-C Inappropriate Speech Mean Change from Baseline ([1]; DB 100 mg TID): 0.0
ABC-C Inappropriate Speech Treatment effect versus placebo ([1]; DB 100 mg TID): 1.6
ABC-C Inappropriate Speech change, median ([1]; DB 100 mg TID): −2, 0, 1
ABC-C Irritability and Agitation Mean Change from Baseline ([1]; DB 100 mg TID): −0.9
ABC-C Irritability and Agitation Treatment effect versus placebo ([1]; DB 100 mg TID): 2.5
ABC-C Irritability and Agitation change, median ([1]; DB 100 mg TID): −2, −1, 0
ABC-C Lethargy and Social Withdrawal Mean Change from Baseline ([1]; DB 100 mg TID): −1.6
ABC-C Lethargy and Social Withdrawal Treatment effect versus placebo ([1]; DB 100 mg TID): 3.9
ABC-C Lethargy and Social Withdrawal change, median ([1]; DB 100 mg TID): −2, −1, 1
ABC-C Stereotypic Behavior Mean Change from Baseline ([1]; DB 100 mg TID): 1.9
ABC-C Stereotypic Behavior Treatment effect versus placebo ([1]; DB 100 mg TID): 2.5
ABC-C Stereotypic Behavior change, median ([1]; DB 100 mg TID): 0, 0, 4
ABC-C Hyperactivity and Noncompliance Mean Change from Baseline ([1]; DB 200 mg TID): −4.0
ABC-C Hyperactivity and Noncompliance Treatment effect versus placebo ([1]; DB 200 mg TID): 0.5
ABC-C Hyperactivity and Noncompliance change, median ([1]; DB 200 mg TID): −7, −1, 0
ABC-C Inappropriate Speech Mean Change from Baseline ([1]; DB 200 mg TID): −2.0
ABC-C Inappropriate Speech Treatment effect versus placebo ([1]; DB 200 mg TID): −0.4
ABC-C Inappropriate Speech change, median ([1]; DB 200 mg TID): −4, −1, 0
ABC-C Irritability and Agitation Mean Change from Baseline ([1]; DB 200 mg TID): −2.2
ABC-C Irritability and Agitation Treatment effect versus placebo ([1]; DB 200 mg TID): 1.2
ABC-C Irritability and Agitation change, median ([1]; DB 200 mg TID): −7, −2, 0
ABC-C Lethargy and Social Withdrawal Mean Change from Baseline ([1]; DB 200 mg TID): −4.5
ABC-C Lethargy and Social Withdrawal Treatment effect versus placebo ([1]; DB 200 mg TID): 1.0
ABC-C Lethargy and Social Withdrawal change, median ([1]; DB 200 mg TID): −9, −2, 0
ABC-C Stereotypic Behavior Mean Change from Baseline ([1]; DB 200 mg TID): −1.7
ABC-C Stereotypic Behavior Treatment effect versus placebo ([1]; DB 200 mg TID): −1.1
ABC-C Stereotypic Behavior change, median ([1]; DB 200 mg TID): −3, −1, 0
patients with stability or improvement of ABC-C social and speech domains ([1]; L1-79 200 mg): 90 to 100%
VABS II Standardized Communication Score Mean Change from Baseline ([2]; DB 100 mg TID): 10.1
VABS II Standardized Communication Score Treatment effect versus placebo ([2]; DB 100 mg TID): 3.6
VABS II Standardized Communication Score change, median ([2]; DB 100 mg TID): −1, 5, 16
VABS II Standardized Socialization Score Mean Change from Baseline ([2]; DB 100 mg TID): −4.2
VABS II Standardized Socialization Score Treatment effect versus placebo ([2]; DB 100 mg TID): −5.0
VABS II Standardized Socialization Score change, median ([2]; DB 100 mg TID): −13, −12, 9
VABS II Standardized Communication Score Mean Change from Baseline ([2]; DB 200 mg TID): 2.7
VABS II Standardized Communication Score Treatment effect versus placebo ([2]; DB 200 mg TID): −3.8
VABS II Standardized Communication Score change, median ([2]; DB 200 mg TID): 0, 1, 3
VABS II Standardized Socialization Score Mean Change from Baseline ([2]; DB 200 mg TID): 7.6
VABS II Standardized Socialization Score Treatment effect versus placebo ([2]; DB 200 mg TID): 6.8
VABS II Standardized Socialization Score change, median ([2]; DB 200 mg TID): 0, 1, 20
